Assay results published in ChEMBL document CHEMBL1201862, “PubChem BioAssay data set” (2004).
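1) Cells in 96-well plates. 2) Compound, 48 h, 5 concentrations. 3) Linear interpolation between surrounding doses. 4) Unreached endpoint = highest concentration. GI50 is the concentration that inhibits growth by half.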 Active and inactive are the calls of the source. No stated cut-off is given here; in the data, active = GI50 up to about 1.1 µM and inactive = higher.

Key:
Assay in all cases: NCI-60 cell line screen, 48 h
UO-31 = system: UO-31
COLO 205 = system: COLO 205
ACHN = system: ACHN
Malme-3M = system: Malme-3M
HT-29 = system: HT-29
HCT-15 = system: HCT-15
T47D = system: T47D
U-251 = system: U-251
HOP-92 = system: HOP-92
DU-145 = system: DU-145
SN12C = system: SN12C
786-0 = system: 786-0
SNB-75 = system: SNB-75
TK-10 = system: TK-10
NCI-H226 = system: NCI-H226
NCI-H460 = system: NCI-H460
SK-OV-3 = system: SK-OV-3
MDA-N = system: MDA-N
K562 = system: K562
OVCAR-5 = system: OVCAR-5

SMILES | GI50 (UO-31) | GI50 (COLO 205) | GI50 (ACHN) | GI50 (Malme-3M) | GI50 (HT-29) | GI50 (HCT-15) [µM] | GI50 (T47D) | GI50 (U-251) | GI50 (HOP-92) | GI50 (DU-145) | GI50 (SN12C) | GI50 (786-0) | GI50 (SNB-75) | GI50 (TK-10) | GI50 (NCI-H226) | GI50 (NCI-H460) | GI50 (SK-OV-3) | GI50 (MDA-N) | GI50 (K562) | GI50 (OVCAR-5)
O=C(CSCC(=O)N/N=C\c1ccc(O)c(O)c1O)N/N=C\c1ccc(O)c(O)c1O | 13.7 µM (inactive) | 23.3 µM (inactive) | 5.87 µM (inactive) | 22.6 µM (inactive) | 11.6 µM (inactive) | 13.4 | 18.7 µM (inactive) | 4.84 µM (inactive) | 31 µM (inactive) | 14.1 µM (inactive) | 21.2 µM (inactive) | 2.01 µM (inactive) | 2.11 µM (inactive) | 24 µM (inactive) | 26.2 µM (inactive) | 23.3 µM (inactive) | 31.6 µM (inactive) |  |  | 
Cc1ccc(/C=C2\CN(C)CC3C2=NN(c2ccccc2)C3c2ccc(C)cc2)cc1 (centres undefined) | > 100 µM (inactive) | > 100 µM (inactive) | > 100 µM (inactive) | 36.6 µM (inactive) | > 100 µM (inactive) | > 100 | > 100 µM (inactive) | 33.3 µM (inactive) | > 100 µM (inactive) | > 100 µM (inactive) | > 100 µM (inactive) | > 100 µM (inactive) |  | > 100 µM (inactive) | > 100 µM (inactive) | > 100 µM (inactive) | 63.8 µM (inactive) | > 100 µM (inactive) | 46.7 µM (inactive) | > 10 µM (inactive)
CC(=O)O[C@H]1CCC2[C@@H]3CCC4Nc5oncc5C[C@]4(C)C3CC[C@@]21C (some centres undefined) | > 10 µM (inactive) | > 10 µM (inactive) | > 10 µM (inactive) | > 10 µM (inactive) | > 10 µM (inactive) | > 10 | > 10 µM (inactive) | > 10 µM (inactive) | > 10 µM (inactive) | > 10 µM (inactive) | > 10 µM (inactive) | 6.5 µM (inactive) |  | > 10 µM (inactive) | > 10 µM (inactive) | > 10 µM (inactive) | > 10 µM (inactive) | > 10 µM (inactive) | > 10 µM (inactive) | > 10 µM (inactive)
CCc1c(O)nc(Nc2nc3ccccc3[nH]2)[nH]c1=O | > 100 µM (inactive) | > 100 µM (inactive) | > 100 µM (inactive) | > 100 µM (inactive) | > 100 µM (inactive) | > 100 |  | > 100 µM (inactive) | 27.7 µM (inactive) | > 100 µM (inactive) | > 100 µM (inactive) | > 100 µM (inactive) | > 100 µM (inactive) | > 100 µM (inactive) | > 100 µM (inactive) | > 100 µM (inactive) | > 100 µM (inactive) | > 100 µM (inactive) | > 100 µM (inactive) | > 100 µM (inactive)
Nc1nc(NNc2ccccc2F)cc(=O)[nH]1 | > 100 µM (inactive) | 97.1 µM (inactive) | > 100 µM (inactive) | > 100 µM (inactive) | > 100 µM (inactive) | > 100 |  | 82.2 µM (inactive) |  | > 100 µM (inactive) | > 100 µM (inactive) | 58.1 µM (inactive) |  | > 100 µM (inactive) | > 100 µM (inactive) | > 100 µM (inactive) |  | > 100 µM (inactive) | 58.6 µM (inactive) | > 100 µM (inactive)
CN(C)/C=N/S(=O)(=O)c1nn2c(C=O)c(-c3ccc(Cl)cc3)nc2s1 | 1.02 µM (active) | 1.28 µM (inactive) | 1.15 µM (inactive) | 1.47 µM (inactive) | 0.196 µM (active) | 1.61 | 1.67 µM (inactive) | 2.95 µM (inactive) | 2.34 µM (inactive) | 2.12 µM (inactive) | 2.23 µM (inactive) | 1.25 µM (inactive) | 11.2 µM (inactive) | 1.5 µM (inactive) | 4.25 µM (inactive) | 6.28 µM (inactive) | 15.8 µM (inactive) |  | 0.403 µM (active) | 1.75 µM (inactive)
CN(C)c1cccc(-c2cc(=S)c3cc4c(cc3[nH]2)OCO4)c1 | 18.4 µM (inactive) | 14.8 µM (inactive) | 7.93 µM (inactive) | 8.28 µM (inactive) | 6.24 µM (inactive) | 4.74 | 6.87 µM (inactive) | > 20.7 µM (inactive) | > 100 µM (inactive) | 4.74 µM (inactive) | 16.4 µM (inactive) | 6.07 µM (inactive) |  | > 77.4 µM (inactive) | 5.7 µM (inactive) | 4.59 µM (inactive) | 6.14 µM (inactive) | 2.83 µM (inactive) |  | > 64.9 µM (inactive)
C=C(CC(NC(=O)c1ccc(C(CC)Cc2cnc3nc(N)nc(N)c3n2)cc1)C(=O)O)C(=O)O (centres undefined) | 0.114 µM (active) | 0.0796 µM (active) | 0.0184 µM (active) | 0.35 µM (active) | 0.0356 µM (active) | 0.00531 |  | 0.152 µM (active) |  |  | 0.0244 µM (active) | 0.00174 µM (active) | 0.154 µM (active) | 0.0719 µM (active) | 0.0875 µM (active) | 0.00589 µM (active) | 0.214 µM (active) | 0.0462 µM (active) | 0.00185 µM (active) | 0.653 µM (active)
Cc1cc(O)c2c3c(ccc2c1)C(=O)c1c(O)cccc1C3=O [TETRANGULOL] | > 100 µM (inactive) | 3.25 µM (inactive) | 17.7 µM (inactive) | 0.0157 µM (active) | 8.15 µM (inactive) | 1.92 | 5.14 µM (inactive) | 21 µM (inactive) | > 100 µM (inactive) | 4.56 µM (inactive) | 72.6 µM (inactive) | 7.46 µM (inactive) |  | 54.5 µM (inactive) |  | 0.653 µM (active) | > 83.2 µM (inactive) | 0.188 µM (active) | 18.6 µM (inactive) | > 51.3 µM (inactive)
O=C(COc1ccc(OCC(=O)N2C(=O)CN(c3ccc(Cl)cc3)C2=S)cc1)N1C(=O)CN(c2ccc(Cl)cc2)C1=S | 29 µM (inactive) | 25.6 µM (inactive) | 26.4 µM (inactive) | 41.2 µM (inactive) | 31.4 µM (inactive) | 29.9 |  | 24 µM (inactive) | 21.8 µM (inactive) | 43.2 µM (inactive) | 30.5 µM (inactive) | 22.9 µM (inactive) | 40.6 µM (inactive) | 24.4 µM (inactive) | 23.9 µM (inactive) | 23.3 µM (inactive) | 26.9 µM (inactive) | 29.9 µM (inactive) | 29.3 µM (inactive) | 36.1 µM (inactive)
COC(=O)c1cc2c(cc1Cl)Sc1nnc(Nc3ccccc3)n1S2(=O)=O | 2.48 µM (inactive) | 6.52 µM (inactive) | 1.8 µM (inactive) | 3.03 µM (inactive) | 2.4 µM (inactive) | 2.34 | 1.59 µM (inactive) | 2.76 µM (inactive) | 1.42 µM (inactive) | 1.66 µM (inactive) | 6.31 µM (inactive) | 4.18 µM (inactive) | 5.12 µM (inactive) | 2.69 µM (inactive) | 2.45 µM (inactive) | 10 µM (inactive) | 6.75 µM (inactive) |  | 3.41 µM (inactive) | 7.93 µM (inactive)
O=c1[nH]nc(Cc2ccccc2)n1N=C1CCCCC1 | > 100 µM (inactive) | > 100 µM (inactive) | > 100 µM (inactive) | > 100 µM (inactive) | 58.7 µM (inactive) | > 100 | > 100 µM (inactive) | > 100 µM (inactive) | > 100 µM (inactive) | > 100 µM (inactive) | > 100 µM (inactive) | > 100 µM (inactive) |  | > 100 µM (inactive) | > 100 µM (inactive) | > 100 µM (inactive) |  | > 100 µM (inactive) | > 100 µM (inactive) | 3.78 µM (inactive)
COCOc1cc(OC)ccc1C/C=N/O | > 100 µM (inactive) | > 100 µM (inactive) | > 100 µM (inactive) | > 100 µM (inactive) | > 100 µM (inactive) | > 100 | > 100 µM (inactive) | > 100 µM (inactive) | > 100 µM (inactive) | > 100 µM (inactive) | > 100 µM (inactive) | > 100 µM (inactive) |  | > 100 µM (inactive) | > 100 µM (inactive) | > 100 µM (inactive) | > 100 µM (inactive) | > 100 µM (inactive) | > 100 µM (inactive) | > 100 µM (inactive)
C=CCN1C[C@H](C)N([C@H](c2ccc(C(=O)N(CC)CCO)cc2)c2cccc(OC)c2)C[C@H]1C | > 100 µM (inactive) | 43.5 µM (inactive) | > 100 µM (inactive) | > 100 µM (inactive) | 47.6 µM (inactive) | > 100 | 38.5 µM (inactive) | 56 µM (inactive) | 13.6 µM (inactive) | > 100 µM (inactive) | > 100 µM (inactive) | > 100 µM (inactive) |  | > 100 µM (inactive) | 50.1 µM (inactive) |  | 71.8 µM (inactive) | > 100 µM (inactive) |  | > 100 µM (inactive)
CC1CCC(C(=O)O)(C(Br)C(=O)O)CC1 (centres undefined) | > 100 µM (inactive) |  | > 100 µM (inactive) |  | > 100 µM (inactive) | > 100 |  | > 100 µM (inactive) | > 100 µM (inactive) | > 100 µM (inactive) | > 100 µM (inactive) | > 100 µM (inactive) | > 100 µM (inactive) | > 100 µM (inactive) | > 100 µM (inactive) | > 100 µM (inactive) |  | > 100 µM (inactive) | > 100 µM (inactive) | > 100 µM (inactive)
Clc1ccccc1/C=c1\nc(-c2ccccc2)n2c1nc1ccccc12 | > 100 µM (inactive) | > 100 µM (inactive) | > 100 µM (inactive) | > 100 µM (inactive) | > 100 µM (inactive) | > 100 | > 100 µM (inactive) | 21.7 µM (inactive) | 40.7 µM (inactive) | > 100 µM (inactive) | > 100 µM (inactive) | 41.2 µM (inactive) |  | 31.4 µM (inactive) | > 100 µM (inactive) | > 100 µM (inactive) | 25.3 µM (inactive) | 30.6 µM (inactive) | > 100 µM (inactive) | > 100 µM (inactive)
